Test results from patent publication US4698352A, “4-oxo-1,4-dihydronicotinic acid derivatives, salts thereof, and antibacterial agents containing the same” (Toyama Chemical Co., Ltd., priority 1982, dated 1987).
≈ marks a conversion by molar mass, not a printed value. Like-named read-outs stand apart in the source and are kept apart here.

Columns and labels:
Assay in all cases: Antibacterial activity (MIC), agar dilution
Format in all cases: cell-based
Aci. antitratus A-6 = conditions: Aci. antitratus A-6, 10^6 cells per ml, 37° C., 20 hours
Excerpt: (§1) The amount of bacteria inoculated was 10^4 cells per plate (10^6 cells per ml).

E. coli NIHJ JC-2 = conditions: E. coli NIHJ JC-2, 10^6 cells per ml, 37° C., 20 hours
Excerpt: as §1

E. coli TK-111 = conditions: E. coli TK-111, 10^6 cells per ml, 37° C., 20 hours
Excerpt: as §1

Ent. cloacae IID977 = test system: Ent. cloacae IID977
Excerpt: as §1

Kl. pneumoniae Y-41 = conditions: 37° C., 20 hours
Excerpt: as §1

Kl. pneumoniae Y-50 = conditions: 10^6 cells per ml, 37° C.
Excerpt: as §1

Pro. mirabilis T-111 = conditions: 37° C.
Excerpt: as §1

Pro. morganii T-216 = conditions: Morganella morganii, 37° C.
Excerpt: as §1

Pro. vulgaris GN3027 = conditions: Pro. vulgaris GN3027, 10^6 cells per ml, 37° C., 20 hours
Excerpt: as §1

Ps. aeruginosa IFO3445 = conditions: Ps. aeruginosa IFO3445, 10^6 cells per ml, 37° C., 20 hours
Excerpt: as §1

Ps. aeruginosa S-68 = conditions: Ps. aeruginosa S-68, 10^6 cells per ml, 37° C., 20 hours
Excerpt: as §1

St. aureus FDA209P = conditions: St. aureus FDA209P, 10^6 cells per ml, 37° C., 20 hours
Excerpt: as §1

E. coli TK-3* = test system: E. coli TK-3*
Excerpt: as §1
(§2) * Penicillinase-producing bacteria

Kl. pneumoniae Y-4* = conditions: Kl. pneumoniae Y-4, penicillinase-producing, 10^6 cells per ml
Excerpt: as §1, §2

Ps. aeruginosa GN3379* = conditions: Pseudomonas aeruginosa, Ps. aeruginosa GN3379, penicillinase-producing, 10^6 cells per ml
Excerpt: as §1, §2

St. aureus F-137* = conditions: St. aureus F-137, penicillinase-producing, 10^6 cells per ml
Excerpt: as §1, §2

E. coli GN5482** = conditions: E. coli GN5482, cephalospolinase-producing, 10^6 cells per ml
Excerpt: as §1
(§3) ** Cephalospolinase-producing bacteria

Pro. vulgaris GN76** = conditions: Pro. vulgaris GN76, cephalospolinase-producing, 10^6 cells per ml
Excerpt: as §1, §3

Ps. aeruginosa GN918** = conditions: Pseudomonas aeruginosa, 20 h; Ps. aeruginosa GN918, cephalospolinase-producing; 10^6 cells per ml; read-out: MIC
Excerpt: as §1, §3

[1] = T216, 10^6 cells per ml, 20 hours, read-out: MIC
[2] = Escherichia coli, NIHJJC2, 20 h, read-out: MIC
[3] = Escherichia coli, TK111, 20 h, read-out: MIC
[4] = Enterobacter cloacae, IID977, 20 h, Ent. cloacae IID977, 10^6 cells per ml, 37° C., 20 hours, read-out: MIC
[5] = Klebsiella pneumoniae, Y41, 10^6 cells per ml, read-out: MIC
[6] = Klebsiella pneumoniae, Y50, 20 h, read-out: MIC
[7] = Proteus mirabilis, T111, 20 h, 10^6 cells per ml
[8] = Proteus vulgaris, GN3027, 20 h, read-out: MIC
[9] = Pseudomonas aeruginosa, read-out: MIC
[10] = Pseudomonas aeruginosa, S68, read-out: MIC
[11] = Staphylococcus aureus, FDA209P, 20 h, read-out: MIC
[12] = Escherichia coli, 20 h, E. coli TK-3, penicillinase-producing, 10^6 cells per ml, read-out: MIC
[13] = Klebsiella pneumoniae, 20 h, read-out: MIC
[14] = Staphylococcus aureus, 20 h, read-out: MIC
[15] = Escherichia coli, 20 h, read-out: MIC
[16] = Proteus vulgaris, 20 h, read-out: MIC

Structure (SMILES) | MIC (Pro. morganii T-216; [1]) | MIC (Ps. aeruginosa GN918**) | MIC (Aci. antitratus A-6; 20 h, read-out: MIC) | MIC (E. coli NIHJ JC-2; [2]) | MIC (E. coli TK-111; [3]) | MIC (Ent. cloacae IID977; [4]) | MIC (Kl. pneumoniae Y-41; [5]) | MIC (Kl. pneumoniae Y-50; [6]) | MIC (Pro. mirabilis T-111; [7]) | MIC (Pro. morganii T-216; T216, 20 h, 10^6 cells per ml) | MIC (Pro. vulgaris GN3027; [8]) | MIC (Ps. aeruginosa IFO3445; [9]) | MIC (Ps. aeruginosa S-68; [10]) | MIC (St. aureus FDA209P; [11]) | MIC (E. coli TK-3*; [12]) | MIC (Kl. pneumoniae Y-4*; [13]) | MIC (Ps. aeruginosa GN3379*; 20 h, read-out: MIC) | MIC (St. aureus F-137*; [14]) | MIC (E. coli GN5482**; [15]) | MIC (Pro. vulgaris GN76**; [16]) | also measured
CC(=O)Oc1ccc(-n2cc(C(=O)OCCN(C)C)c(=O)cc2-c2ccc(N(C)C)cc2)cc1 [drawing 67] | 1.56 µg/mL (≈ 3.37 µM) | 1.56 µg/mL (≈ 3.37 µM) |  |  |  |  |  |  |  |  |  |  |  |  |  |  |  |  |  |  | MIC (Aci. antitratus A-6): 0.2 µg/mL (≈ 0.431 µM); MIC (E. coli NIHJ JC-2): 0.2 µg/mL (≈ 0.431 µM); MIC (E. coli TK-111): 0.1 µg/mL (≈ 0.216 µM); MIC (Ent. cloacae IID977; Ent. cloacae IID977, 10^6 cells per ml, 37° C., 20 hours): 0.78 µg/mL (≈ 1.68 µM); MIC (Kl. pneumoniae Y-41; 10^6 cells per ml): 3.13 µg/mL (≈ 6.75 µM); MIC (Kl. pneumoniae Y-50; 20 hours): 0.39 µg/mL (≈ 0.841 µM); MIC (Pro. mirabilis T-111; 10^6 cells per ml, 20 hours): 3.13 µg/mL (≈ 6.75 µM); MIC (Pro. vulgaris GN3027): 0.2 µg/mL (≈ 0.431 µM); MIC (Ps. aeruginosa IFO3445): 12.5 µg/mL (≈ 27 µM); MIC (Ps. aeruginosa S-68): 6.25 µg/mL (≈ 13.5 µM); MIC (St. aureus FDA209P): 0.2 µg/mL (≈ 0.431 µM); MIC (E. coli TK-3*; E. coli TK-3, penicillinase-producing, 10^6 cells per ml): 0.78 µg/mL (≈ 1.68 µM); MIC (Kl. pneumoniae Y-4*): 3.13 µg/mL (≈ 6.75 µM); MIC (Ps. aeruginosa GN3379*; GN3379, 20 h): 6.25 µg/mL (≈ 13.5 µM); MIC (St. aureus F-137*): 0.2 µg/mL (≈ 0.431 µM); MIC (E. coli GN5482**): ≤ 0.05 µg/mL; MIC (Pro. vulgaris GN76**): 1.56 µg/mL (≈ 3.37 µM)
Cc1cc(O)ccc1-n1cc(C(=O)O)c(=O)cc1-c1ccc2[nH]ccc2c1 |  | 3.13 µg/mL (≈ 8.69 µM) | 3.13 µg/mL (≈ 8.69 µM) | 0.39 µg/mL (≈ 1.08 µM) | 0.1 µg/mL (≈ 0.277 µM) | 0.78 µg/mL (≈ 2.16 µM) | 0.78 µg/mL (≈ 2.16 µM) | 0.2 µg/mL (≈ 0.555 µM) | 1.56 µg/mL (≈ 4.33 µM) | 1.56 µg/mL (≈ 4.33 µM) | 0.2 µg/mL (≈ 0.555 µM) | 6.25 µg/mL (≈ 17.3 µM) | 6.25 µg/mL (≈ 17.3 µM) | 0.1 µg/mL (≈ 0.277 µM) | 0.39 µg/mL (≈ 1.08 µM) | 1.56 µg/mL (≈ 4.33 µM) | 25 µg/mL (≈ 69.4 µM) | 0.1 µg/mL (≈ 0.277 µM) | ≤ 0.05 µg/mL | 0.78 µg/mL (≈ 2.16 µM) | 
Cc1ccc(-c2cc(=O)c(C(=O)O)cn2-c2ccc(O)cc2)s1 | 0.39 µg/mL (≈ 1.19 µM) | 0.78 µg/mL (≈ 2.38 µM) | 0.39 µg/mL (≈ 1.19 µM) | 0.2 µg/mL (≈ 0.611 µM) | ≤ 0.05 µg/mL | 0.78 µg/mL (≈ 2.38 µM) | 0.78 µg/mL (≈ 2.38 µM) | 0.2 µg/mL (≈ 0.611 µM) |  |  | ≤ 0.05 µg/mL | 3.13 µg/mL (≈ 9.56 µM) | 3.13 µg/mL (≈ 9.56 µM) | 0.2 µg/mL (≈ 0.611 µM) | 0.2 µg/mL (≈ 0.611 µM) | 1.56 µg/mL (≈ 4.77 µM) | 3.13 µg/mL (≈ 9.56 µM) | 0.2 µg/mL (≈ 0.611 µM) | ≤ 0.05 µg/mL | 0.2 µg/mL (≈ 0.611 µM) | MIC (Pro. mirabilis T-111; Proteus mirabilis, T111, 10^6 cells per ml, 20 hours, read-out: MIC): 3.13 µg/mL (≈ 9.56 µM)
CN(C)c1ccc(-c2cc(=O)c(C(=O)O)cn2-c2ccc(O)cc2)cc1 [drawing 206] | 0.78 µg/mL (≈ 2.23 µM) | 1.5 µg/mL (≈ 4.28 µM) | 0.39 µg/mL (≈ 1.11 µM) | 0.2 µg/mL (≈ 0.571 µM) | 0.05 µg/mL (≈ 0.143 µM) | 0.39 µg/mL (≈ 1.11 µM) | 0.78 µg/mL (≈ 2.23 µM) |  | 1.56 µg/mL (≈ 4.45 µM) |  | 0.1 µg/mL (≈ 0.285 µM) | 3.13 µg/mL (≈ 8.93 µM) | 3.13 µg/mL (≈ 8.93 µM) | 0.2 µg/mL (≈ 0.571 µM) | 0.39 µg/mL (≈ 1.11 µM) | 1.56 µg/mL (≈ 4.45 µM) | 3.13 µg/mL (≈ 8.93 µM) | 0.1 µg/mL (≈ 0.285 µM) | 0.05 µg/mL (≈ 0.143 µM) | 0.39 µg/mL (≈ 1.11 µM) | MIC (Kl. pneumoniae Y-50; Klebsiella pneumoniae, Y50, 20 h): 0.2 µg/mL (≈ 0.571 µM)
O=C(O)c1cn(-c2ccc(F)cc2)c(/C=C/c2ccccc2)cc1=O |  | 50 µg/mL (≈ 149 µM) | 1.56 µg/mL (≈ 4.65 µM) | 3.13 µg/mL (≈ 9.33 µM) | 1.56 µg/mL (≈ 4.65 µM) |  | 12.5 µg/mL (≈ 37.3 µM) | 6.25 µg/mL (≈ 18.6 µM) | 12.5 µg/mL (≈ 37.3 µM) | 12.5 µg/mL (≈ 37.3 µM) | 0.78 µg/mL (≈ 2.33 µM) | 50 µg/mL (≈ 149 µM) | 25 µg/mL (≈ 74.6 µM) | 3.13 µg/mL (≈ 9.33 µM) |  | 25 µg/mL (≈ 74.6 µM) | 25 µg/mL (≈ 74.6 µM) | 3.13 µg/mL (≈ 9.33 µM) | 0.39 µg/mL (≈ 1.16 µM) | 3.13 µg/mL (≈ 9.33 µM) | MIC (Ent. cloacae IID977; Enterobacter cloacae, IID977, 20 h): 12.5 µg/mL (≈ 37.3 µM); MIC (E. coli TK-3*; Escherichia coli, 20 h): 12.5 µg/mL (≈ 37.3 µM)
